Values joined by “and” are separate entries in the source; they are usually repeats but may differ in a detail not shown here. Equal values may be shown once.
What was measured:
[1] = biological target: T1, human μ-opioid receptor (OPRM1) (Homo sapiens, UniProt P35372); assay: cell-based; details: for EC50: MOR Agonist EC50 ± SEM; for Emax: read-out: MOR Agonist %Emax ± SEM
T1 construct: host or cells: cAMP Hunter CHO-K1 (Chinese hamster ovary) cells

[2] = biological target: T2, human δ-opioid receptor (OPRD1) (Homo sapiens, UniProt P41143); assay: forskolin-induced cAMP accumulation assay, DOR agonist; details: for Emax: CHO-K1, read-out: DOR Agonist %Emax ± SEM, CHO-K1 cells expressing human DOR; for EC50: DOR Agonist EC50 ± SEM, inhibition of forskolin-induced cAMP accumulation
[3] = biological target: T3, human κ-opioid receptor (OPRK1) (Homo sapiens, UniProt P41145); assay: forskolin-induced cAMP accumulation assay, KOR antagonist
[4] = biological target: T3, human κ-opioid receptor (OPRK1); assay: forskolin-induced cAMP accumulation assay, KOR agonist; details: for EC50: KOR Agonist EC50 ± SEM, inhibition of forskolin-induced cAMP accumulation, CHO-K1 cells expressing human KOR; for Emax: CHO-K1, read-out: KOR Agonist %Emax ± SEM, CHO-K1 cells expressing human KOR, normalized to the forskolin control
[5] = biological target: T2, human δ-opioid receptor (OPRD1); assay: forskolin-induced cAMP accumulation assay, DOR antagonist; assay type: cell-based; set-up: host or cells: cAMP Hunter CHO-K1 (Chinese hamster ovary) cells; details: for DOR Antagonist %Imax ± SEM: CHO-K1 human DOR, versus EC50 of SNC80, Imax normalized to naltrexone
[6] = normalized to the forskolin control
[7] = CHO-K1 cells expressing human DOR

T1 sequence (P35372 whole entry): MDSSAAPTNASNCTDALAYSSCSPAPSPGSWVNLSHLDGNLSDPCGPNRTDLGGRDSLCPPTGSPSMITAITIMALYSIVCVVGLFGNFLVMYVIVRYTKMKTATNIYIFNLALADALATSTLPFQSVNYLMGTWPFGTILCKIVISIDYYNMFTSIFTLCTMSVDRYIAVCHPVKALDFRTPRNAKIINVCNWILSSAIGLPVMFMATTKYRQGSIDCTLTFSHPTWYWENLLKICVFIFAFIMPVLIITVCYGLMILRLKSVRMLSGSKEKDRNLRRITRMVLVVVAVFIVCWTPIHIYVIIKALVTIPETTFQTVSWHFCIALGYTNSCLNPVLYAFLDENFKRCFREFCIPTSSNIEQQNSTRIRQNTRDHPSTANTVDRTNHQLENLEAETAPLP
T2 sequence (P41143 whole entry): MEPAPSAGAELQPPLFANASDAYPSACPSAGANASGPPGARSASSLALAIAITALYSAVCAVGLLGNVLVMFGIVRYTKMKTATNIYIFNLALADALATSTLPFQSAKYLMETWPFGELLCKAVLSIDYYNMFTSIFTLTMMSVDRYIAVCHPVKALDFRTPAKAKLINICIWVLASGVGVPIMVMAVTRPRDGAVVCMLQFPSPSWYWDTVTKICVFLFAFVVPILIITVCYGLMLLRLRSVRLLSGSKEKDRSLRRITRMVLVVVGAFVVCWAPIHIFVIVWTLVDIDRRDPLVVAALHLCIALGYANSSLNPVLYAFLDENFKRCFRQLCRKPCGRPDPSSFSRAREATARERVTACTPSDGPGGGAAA
T3 sequence (P41145 whole entry): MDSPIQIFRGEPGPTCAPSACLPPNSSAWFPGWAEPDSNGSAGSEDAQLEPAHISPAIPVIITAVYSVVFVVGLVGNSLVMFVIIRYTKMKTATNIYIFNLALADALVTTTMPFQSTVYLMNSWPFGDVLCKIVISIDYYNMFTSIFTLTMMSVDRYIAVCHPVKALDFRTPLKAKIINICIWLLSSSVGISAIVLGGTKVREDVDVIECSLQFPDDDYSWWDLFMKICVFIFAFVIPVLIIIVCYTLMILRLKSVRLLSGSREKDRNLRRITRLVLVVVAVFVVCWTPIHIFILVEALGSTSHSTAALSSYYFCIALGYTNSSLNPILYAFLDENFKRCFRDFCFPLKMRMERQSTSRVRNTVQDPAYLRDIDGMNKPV

Structure (SMILES): CNC[C@H]1[C@H]2CCC[C@]1(c1cccc(O)c1)CCN2CCc1ccccc1 [1R,5S,9S-53, 3-((1R,5S,9S)-9-((Methylamino)methyl)-2-phenethyl-2-azabicyclo[3.3.1]nonan-5-yl)phenol]
- EC50 [1]: 16 nM and 15.9 nM
- Emax [1]: 97%
- Emax [2, 6]: 17.4%
- EC50 [2, 7]: 43.9 ± 22.2 nM
- IC50 [3]: > 10000 nM
- EC50 [4]: > 10000 nM
- IC50 [5]: 1630 ± 882 nM
- DOR Antagonist %Imax ± SEM [5]: 109.3 ± 5.2%

Structure (SMILES): CNC[C@@H]1[C@H]2CCC[C@]1(c1cccc(O)c1)CCN2CCc1ccccc1 [1R,5S,9R-52, 3-((1R,5S,9R)-9-((Methylamino)methyl)-2-phenethyl-2-azabicyclo[3.3.1]nonan-5-yl)phenol]
- EC50 [1]: 43 nM and 43.3 nM
- Emax [1]: 94%
- Emax [2, 6]: 62%
- EC50 [2, 7]: 502 ± 125 nM
- Emax [4]: 57%
- EC50 [4]: 210 ± 92 nM

Structure (SMILES): N[C@@H]1[C@H]2CCC[C@]1(c1cccc(O)c1)CCN2CCc1ccccc1 [1R,5R,9S-6, 3-((1R,5R,9S)-9-Amino-2-phenethyl-2-azabicyclo[3.3.1]nonan-5-yl)phenol]
- EC50 [1]: 24 nM
- Emax [1]: 91%
- Emax [2, 6]: 39.4%
- EC50 [2, 7]: 690 ± 188 nM
- IC50 [3]: > 10000 nM
- EC50 [4]: > 10000 nM
- IC50 [5]: > 10000 nM

Structure (SMILES): CN[C@H]1[C@@H]2CCC[C@@]1(c1cccc(O)c1)CCN2CCc1ccccc1 [1S,5S,9R-8, 3-((1S,5S,9R)-9-(Methylamino)-2-phenethyl-2-azabicyclo[3.3.1]nonan-5-yl)phenol]
- EC50 [1]: > 10000 nM
- EC50 [4]: > 10000 nM

Structure (SMILES): N#CC[C@H]1[C@@H]2CCC[C@@]1(c1cccc(O)c1)CCN2CCc1ccccc1 [1S,5R,9R-38, 2-((1S,5R,9R)-5-(3-Hydroxyphenyl)-2-phenethyl-2-azabicyclo[3.3.1]nonan-9-yl)acetonitrile]
- MOR agonist potency relative to morphine (times more potent) [1]: about twice
- EC50 [1]: 2.5 nM
- Emax [1]: 89.6%
- Emax [2, 6]: 46.8%
- EC50 [2, 7]: 55 ± 3.9 nM
- IC50 [3]: 44 ± 4 nM
- KOR Antagonist %Imax ± SEM ([3]; CHO-K1 human KOR, versus EC90 of U50488H, Imax normalized to nor-BNI): 97 ± 0.1%
- EC50 [4]: > 10000 nM

Structure (SMILES): N#CC=C1[C@H]2CCC[C@]1(c1cccc(O)c1)CCN2CCc1ccccc1 [1R,5R-33, 2-((1R,5R)-5-(3-hydroxyphenyl)-2-phenethyl-2-azabicyclo[3.3.1]nonan-9-ylidene)acetonitrile]
- MOR agonist potency relative to morphine (times more potent) [1]: about three times
- EC50 [1]: 1.8 nM
- Emax [1]: 100%
- Emax [2, 6]: 69%
- DOR Agonist %Emax ± SEM ([2]; CHO-K1 cells expressing human DOR, normalized to the forskolin control): 69.3 ± 6.0%
- EC50 [2, 7]: 8 nM and 8.1 nM
- Emax [4]: > 50%
- EC50 [4]: > 10000 nM

Structure (SMILES): N[C@H]1[C@@H]2CCC[C@@]1(c1cccc(O)c1)CCN2CCc1ccccc1 [1S,5S,9R-3, 3-((1S,5S,9R)-9-Amino-2-phenethyl-2-azabicyclo[3.3.1]nonan-5-yl)phenol]
- EC50 [1]: > 10000 nM
- EC50 [4]: > 10000 nM

Structure (SMILES): ON=C1[C@@H]2CCC[C@@]1(c1cccc(O)c1)CCN2CCc1ccccc1 [1S,5S-15, (1S,5S)-5-(3-Hydroxyphenyl)-2-phenethyl-2-azabicyclo[3.3.1]nonan-9-one oxime]
- EC50 [1]: 229 nM
- Emax [1]: 91%
- EC50 [4]: > 10000 nM

Structure (SMILES): CN[C@@H]1[C@H]2CCC[C@]1(c1cccc(O)c1)CCN2CCc1ccccc1 [1R,5R,9S-10, 3-((1R,5R,9S)-9-(Methylamino)-2-phenethyl-2-azabicyclo[3.3.1]nonan-5-yl)phenol]
- EC50 [1]: 83 nM and 82.8 nM
- Emax [1]: 28%

Structure (SMILES): N#CC[C@@H]1[C@@H]2CCC[C@@]1(c1cccc(O)c1)CCN2CCc1ccccc1 [1S,5R,9S-34, 2-((1S,5R,9S)-5-(3-Hydroxyphenyl)-2-phenethyl-2-azabicyclo[3.3.1]nonan-9-yl)acetonitrile]
- EC50 [1]: 27 nM and 27.3 nM
- Emax [1]: 101%
- Emax [2, 6]: 61.5%
- EC50 [2, 7]: 575 ± 127 nM
- IC50 [3]: > 10000 nM
- EC50 [4]: > 10000 nM

Structure (SMILES): CNC[C@@H]1[C@@H]2CCC[C@@]1(c1cccc(O)c1)CCN2CCc1ccccc1 [1S,5R,9R-47, 3-((1S,5R,9R)-9-((Methylamino)methyl)-2-phenethyl-2-azabicyclo[3.3.1]nonan-5-yl)phenol]
- EC50 [1]: 3.7 nM and 3.66 nM
- Emax [1]: 102%
- Emax [2, 6]: 84.7%
- EC50 [2, 7]: 416 ± 21.1 nM
- Emax [4]: 93.4%
- EC50 [4]: 95.7 ± 17 nM

Structure (SMILES): N#CC[C@@H]1[C@H]2CCC[C@]1(c1cccc(O)c1)CCN2CCc1ccccc1 [1R,5S,9S-41, 2-((1R,5S,9S)-5-(3-Hydroxyphenyl)-2-phenethyl-2-azabicyclo[3.3.1]nonan-9-yl)acetonitrile]
- EC50 [1]: > 10000 nM

Structure (SMILES): N#CC=C1[C@@H]2CCC[C@@]1(c1cccc(O)c1)CCN2CCc1ccccc1 [1S,5S-28, 2-((1S,5S)-5-(3-Hydroxyphenyl)-2-phenethyl-2-azabicyclo[3.3.1]nonan-9-ylidene)acetonitrile]
- EC50 [1]: 27 nM and 27.2 nM
- Emax [1]: 101%
- Emax [2, 6]: 51.4%
- EC50 [2, 7]: 1520 ± 385 nM
- IC50 [3]: > 10000 nM
- EC50 [4]: > 10000 nM

Structure (SMILES): ON=C1[C@H]2CCC[C@]1(c1cccc(O)c1)CCN2CCc1ccccc1 [1R,5R-17, (1R,5R)-5-(3-Hydroxyphenyl)-2-phenethyl-2-azabicyclo[3.3.1]nonan-9-one oxime]
- EC50 [1]: 22 nM and 22.1 nM
- Emax [1]: 99%
- Emax [2, 6]: 32.2%
- EC50 [2, 7]: 157 ± 72 nM
- IC50 [3]: > 10000 nM
- Emax [4]: 21.2%
- EC50 [4]: 146 ± 19 nM
- IC50 [5]: 1080 ± 464 nM
- DOR Antagonist %Imax ± SEM [5]: 66.5 ± 6.0%

Structure (SMILES): N[C@@H]1[C@@H]2CCC[C@@]1(c1cccc(O)c1)CCN2CCc1ccccc1 [1S,5S,9S-22, 3-((1S,5S,9S)-9-Amino-2-phenethyl-2-azabicyclo[3.3.1]nonan-5-yl)phenol]
- EC50 [1]: 94 nM and 94.1 nM
- Emax [1]: 53%

Structure (SMILES): N#CC[C@H]1[C@H]2CCC[C@]1(c1cccc(O)c1)CCN2CCc1ccccc1 [1R,5S,9R-35, 2-((1R,5S,9R)-5-(3-hydroxyphenyl)-2-phenethyl-2-azabicyclo[3.3.1]nonan-9-yl)acetonitrile]
- EC50 [1]: 0.85 nM
- Emax [1]: 99%
- Emax [2, 6]: 35%
- EC50 [2, 7]: 4 nM and 4.3 nM
- IC50 [3]: > 10000 nM
- EC50 [4]: > 10000 nM
- IC50 [5]: 94.5 ± 29.5 nM
- DOR Antagonist %Imax ± SEM [5]: 35.1 ± 2.6%

Structure (SMILES): Oc1ccc2c3c1O[C@H]1c4[nH]c5ccccc5c4C[C@@]4(O)[C@@H](C2)N(CC2CC2)CC[C@]314 [Naltrindole, reference compound]
- DOR Antagonist %Imax ± SEM [5]: 106.8 ± 4.8%

Structure (SMILES): N[C@H]1[C@H]2CCC[C@]1(c1cccc(O)c1)CCN2CCc1ccccc1 [1R,5R,9R-23, 3-((1R,5R,9R)-9-Amino-2-phenethyl-2-azabicyclo[3.3.1]nonan-5-yl)phenol]
- EC50 [1]: 26 nM and 26.1 nM
- Emax [1]: 81%
- Emax [2, 6]: 46.6%
- EC50 [2, 7]: 186 ± 12.5 nM
- IC50 [3]: > 10000 nM
- EC50 [4]: > 10000 nM

Source: article PMC11085448 (Molecules, 2024)
